Data as given in ChEMBL document CHEMBL1150338, “Prediction and identification of drug interactions with the human ATP-binding cassette transporter multidrug-resistance associated protein 2 (MRP2; ABCC2)” (J Med Chem, 2008).

Target: MRP2 (ABCC2) (Homo sapiens, UniProt Q92887)
Test: in vitro
[1] = probe estradiol-17-beta-glucuronide
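Note: Inside-out membrane vesicles from Sf9 insect cells expressing human MRP2, measuring uptake of the estradiol glucuronide substrate, expressed as percent of untreated control.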

Sequence of MRP2 (ABCC2) (Q92887 whole entry): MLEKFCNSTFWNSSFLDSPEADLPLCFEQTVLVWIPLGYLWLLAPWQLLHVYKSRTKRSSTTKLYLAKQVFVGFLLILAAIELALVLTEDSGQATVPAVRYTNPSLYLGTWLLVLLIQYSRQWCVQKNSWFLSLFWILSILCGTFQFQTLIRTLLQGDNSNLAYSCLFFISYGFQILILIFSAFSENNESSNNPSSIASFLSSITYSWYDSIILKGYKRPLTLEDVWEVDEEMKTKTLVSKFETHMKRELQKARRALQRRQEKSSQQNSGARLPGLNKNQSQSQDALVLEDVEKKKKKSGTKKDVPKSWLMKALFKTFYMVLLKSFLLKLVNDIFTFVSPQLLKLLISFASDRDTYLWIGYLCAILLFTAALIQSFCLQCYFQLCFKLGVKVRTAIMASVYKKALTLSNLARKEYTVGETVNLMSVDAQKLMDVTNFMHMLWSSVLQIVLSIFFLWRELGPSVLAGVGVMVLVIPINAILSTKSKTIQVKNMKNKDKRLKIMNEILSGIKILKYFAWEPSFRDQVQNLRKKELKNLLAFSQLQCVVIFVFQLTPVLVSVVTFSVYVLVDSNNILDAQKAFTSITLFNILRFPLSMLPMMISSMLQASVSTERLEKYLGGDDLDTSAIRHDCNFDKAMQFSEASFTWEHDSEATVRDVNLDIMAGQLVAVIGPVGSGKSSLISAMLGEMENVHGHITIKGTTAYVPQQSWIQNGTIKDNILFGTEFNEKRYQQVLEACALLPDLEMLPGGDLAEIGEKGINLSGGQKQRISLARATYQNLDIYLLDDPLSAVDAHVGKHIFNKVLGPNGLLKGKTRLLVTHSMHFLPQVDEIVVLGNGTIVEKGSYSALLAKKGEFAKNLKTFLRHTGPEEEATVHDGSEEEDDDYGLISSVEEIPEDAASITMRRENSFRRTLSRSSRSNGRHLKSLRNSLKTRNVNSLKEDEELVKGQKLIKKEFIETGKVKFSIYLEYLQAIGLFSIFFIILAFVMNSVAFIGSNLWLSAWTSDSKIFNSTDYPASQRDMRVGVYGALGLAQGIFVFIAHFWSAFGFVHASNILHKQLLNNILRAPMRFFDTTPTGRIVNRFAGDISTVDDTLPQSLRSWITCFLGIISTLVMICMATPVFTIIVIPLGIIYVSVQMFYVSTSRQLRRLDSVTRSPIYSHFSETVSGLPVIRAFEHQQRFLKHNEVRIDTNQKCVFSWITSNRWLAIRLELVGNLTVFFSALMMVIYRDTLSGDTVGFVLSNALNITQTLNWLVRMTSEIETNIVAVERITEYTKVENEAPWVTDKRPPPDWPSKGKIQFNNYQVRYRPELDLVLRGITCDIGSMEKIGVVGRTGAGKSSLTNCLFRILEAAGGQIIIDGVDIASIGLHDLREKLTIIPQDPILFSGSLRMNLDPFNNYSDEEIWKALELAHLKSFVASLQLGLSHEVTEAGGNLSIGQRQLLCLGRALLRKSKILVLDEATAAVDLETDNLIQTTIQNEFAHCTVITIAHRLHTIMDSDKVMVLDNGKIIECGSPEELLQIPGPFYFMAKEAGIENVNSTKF
Description: Effect on human MRP2-mediated estradiol-17-beta-glucuronide transport in Sf9 cells inverted membrane vesicles relative to control

CC(C)(C)NC(=O)[C@@H]1C[C@@H]2CCCC[C@@H]2CN1C[C@@H](O)[C@H](Cc1ccccc1)NC(=O)[C@H](CC(N)=O)NC(=O)c1ccc2ccccc2n1
activity [1]: 41%

CC(=O)[C@@]1(O)CC[C@H]2[C@@H]3C[C@H](C)C4=CC(=O)CC[C@]4(C)[C@H]3CC[C@@]21C
activity [1]: 111%

CC1=C(CC(=O)O)c2cc(F)ccc2/C1=C\c1ccc([S+](C)[O-])cc1 (stereo not given)
activity [1]: 151%

CCN(CC)Cc1cc(Nc2ccnc3cc(Cl)ccc23)ccc1O
activity [1]: 60%

CCC[C@@]1(CCc2ccccc2)CC(O)=C([C@H](CC)c2cccc(NS(=O)(=O)c3ccc(C(F)(F)F)cn3)c2)C(=O)O1
activity [1]: 88%

C[n+]1ccc(-c2ccccc2)cc1
activity [1]: 72%

CCOc1ccc(-c2nc3cc(-c4nc5cc(N6CCN(C)CC6)ccc5[nH]4)ccc3[nH]2)cc1
activity [1]: 70%

COc1cc2c(cc1OC)CN(CCc1ccc(NC(=O)c3cccc4c(=O)c5cccc(OC)c5[nH]c34)cc1)CC2
activity [1]: 39%

COc1ccc(/C=C/C(=O)Nc2ccccc2C(=O)O)cc1OC
activity [1]: 98%

COc1ccc2c3c([nH]c2c1)[C@H](CC(C)C)N1C(=O)[C@H](CCC(=O)OC(C)(C)C)NC(=O)[C@@H]1C3
activity (sf9): 73%

CC(=O)Nc1ccc(S(=O)(=O)Nc2ccc([N+](=O)[O-])cc2)cc1
activity [1]: 116%

CC(=O)Oc1ccc2c(c1)Oc1cc(OC(C)=O)ccc1C21OC(=O)c2cc(C(=O)O)ccc21
activity [1]: 7%

O=C(O)[C@H]1O[C@@H](Oc2ccc([N+](=O)[O-])cc2)[C@H](O)[C@@H](O)[C@@H]1O
activity [1]: 99%

Cc1ccc(N(CC(=O)O)CC(=O)O)c(OCCOc2cc(-c3c4cc(Cl)c(=O)cc-4oc4cc(O)c(Cl)cc34)ccc2N(CC(=O)O)CC(=O)O)c1
activity [1]: 9%

COc1ccc(CCN(C)CCCC(C#N)(c2ccc(OC)c(OC)c2)C(C)C)cc1OC (stereo not given)
activity [1]: 56%

CC(C)(C)NC(=O)[C@@H]1CN(Cc2cccnc2)CCN1C[C@@H](O)CC(Cc1ccccc1)C(=O)N[C@H]1c2ccccc2C[C@H]1O (single isomer, unassigned)
activity [1]: 93%

C#CC1(O)CC[C@H]2[C@@H]3CCc4cc(O)ccc4[C@H]3CC[C@@]21C (single isomer, unassigned) [ETHINYL ESTRADIOL]
activity [1]: 53%

O=C1c2c(O)cc(O)cc2O[C@H](c2ccc(O)c(O)c2)[C@H]1O [(+)-TAXIFOLIN]
activity [1]: 108%

CC(C)N(CC[C@](C(N)=O)(c1ccccc1)c1ccccn1)C(C)C [(S)-DISOPYRAMIDE]
activity [1]: 104%

CC(=O)Nc1ccc(O[C@@H]2O[C@H](C(=O)O)[C@@H](O)[C@H](O)[C@H]2O)cc1 [ACETAMINOPHEN GLUCURONIDE]
activity [1]: 150%

Nc1ncnc2c1ncn2CCOCP(=O)(O)O [ADEFOVIR]
activity [1]: 96%

NC12CC3CC(CC(C3)C1)C2 [AMANTADINE]
activity [1]: 101%

N=C(N)NC(=O)c1nc(Cl)c(N)nc1N [AMILORIDE]
activity [1]: 82%

Nc1ccc(C(=O)NCC(=O)O)cc1 [AMINOHIPPURIC ACID]
activity [1]: 46%

CCCCc1oc2ccccc2c1C(=O)c1cc(I)c(OCCN(CC)CC)c(I)c1 [AMIODARONE]
activity (sf9): 66%

CN(C)CCC=C1c2ccccc2CCc2ccccc21 [AMITRIPTYLINE]
activity [1]: 51%

Cc1cc(=O)n(-c2ccccc2)n1C [ANTIPYRINE]
activity [1]: 84%

O=c1cc(-c2ccc(O)cc2)oc2cc(O)cc(O)c12 [APIGENIN]
activity [1]: 94%

COc1ccc(CCN2CCC(Nc3nc4ccccc4n3Cc3ccc(F)cc3)CC2)cc1 [ASTEMIZOLE]
activity [1]: 36%

CNCC[C@@H](Oc1ccccc1C)c1ccccc1 [ATOMOXETINE]
activity [1]: 109%

CN1[C@@H]2CC[C@H]1C[C@@H](OC(=O)C(CO)c1ccccc1)C2 (stereo not given in full) [ATROPINE]
activity [1]: 59%

O=C(O)[C@H]1O[C@@H](Oc2cc3oc(-c4ccccc4)cc(=O)c3c(O)c2O)[C@H](O)[C@@H](O)[C@@H]1O [BAICALIN]
activity [1]: 34%

CCc1oc2ccccc2c1C(=O)c1cc(Br)c(O)c(Br)c1 [BENZBROMARONE]
activity [1]: 11%

COc1ccc(-c2coc3cc(O)cc(O)c3c2=O)cc1 [BIOCHANIN]
activity [1]: 84%

CCCC1O[C@@H]2C[C@H]3[C@@H]4CCC5=CC(=O)C=C[C@]5(C)[C@H]4[C@@H](O)C[C@]3(C)[C@]2(C(=O)CO)O1 (stereo not given in full) [BUDESONIDE]
activity [1]: 150%

CC(NC(C)(C)C)C(=O)c1cccc(Cl)c1 (stereo not given) [BUPROPION]
activity [1]: 106%

C[C@H](CS)C(=O)N1CCC[C@H]1C(=O)O [CAPTOPRIL]
activity [1]: 104%

NC(=O)N1c2ccccc2C=Cc2ccccc21 [CARBAMAZEPINE]
activity [1]: 86%

C[N+](C)(C)C[C@H](O)CC(=O)[O-] [CARNITINE]
activity [1]: 84%

CC1=C(C(=O)O)N2C(=O)[C@@H](NC(=O)[C@H](N)c3ccc(O)cc3)[C@H]2SC1 [CEFADROXIL]
activity [1]: 68%

Cn1nnnc1SCC1=C(C(=O)O)N2C(=O)[C@@H](NC(=O)[C@H](O)c3ccccc3)[C@H]2SC1 [CEFAMANDOLE]
activity [1]: 63%

Cc1ccc(-c2cc(C(F)(F)F)nn2-c2ccc(S(N)(=O)=O)cc2)cc1 [CELECOXIB]
activity [1]: 46%

COc1ccc2c(c[n+](C)c3c4cc5c(cc4ccc23)OCO5)c1OC [CHELERYTHRINE CHLORIDE]
activity [1]: 43%

C[C@H](CCC(=O)O)[C@H]1CC[C@H]2[C@@H]3[C@H](O)C[C@@H]4C[C@H](O)CC[C@]4(C)[C@H]3CC[C@]12C [CHENODIOL]
activity [1]: 101%

CCN(CC)CCCC(C)Nc1ccnc2cc(Cl)ccc12 (stereo not given) [CHLOROQUINE]
activity (sf9): 102%

CN(C)CCCN1c2ccccc2Sc2ccc(Cl)cc21 [CHLORPROMAZINE]
activity (sf9): 58%

CN(C)CC/C=C1/c2ccccc2Sc2ccc(Cl)cc21 [CHLORPROTHIXENE]
activity [1]: 25%

C[C@H](CCC(=O)O)[C@H]1CC[C@H]2[C@@H]3[C@H](O)C[C@@H]4C[C@H](O)CC[C@]4(C)[C@H]3C[C@H](O)[C@]12C [CHOLIC ACID]
activity [1]: 112%

O=c1cc(-c2ccccc2)oc2cc(O)cc(O)c12 [CHRYSIN]
activity [1]: 110%

CN/C(=N/CCSCc1nc[nH]c1C)NC#N [CIMETIDINE]
activity (sf9): 91%

Clc1ccccc1C(c1ccccc1)(c1ccccc1)n1ccnc1 [CLOTRIMAZOLE]
activity [1]: 14%

COc1cc2c(c(OC)c1OC)-c1ccc(OC)c(=O)cc1[C@@H](NC(C)=O)CC2 [COLCHICINE]
activity [1]: 101%

CNCCCN1c2ccccc2CCc2ccccc21 [DESIPRAMINE]
activity [1]: 57%

COc1ccc2c(c1)[C@]13CCCC[C@@H]1[C@H](C2)N(C)CC3 [DEXTROMETHORPHAN]
activity [1]: 57%

O=C(O)Cc1ccccc1Nc1c(Cl)cccc1Cl [DICLOFENAC]
activity [1]: 198%

CC/C(=C(/CC)c1ccc(O)cc1)c1ccc(O)cc1 [DIETHYLSTILBESTROL]
activity [1]: 11%

C[C@H]1O[C@@H](O[C@H]2[C@@H](O)C[C@H](O[C@H]3[C@@H](O)C[C@H](O[C@H]4CC[C@@]5(C)[C@H](CC[C@@H]6[C@@H]5C[C@@H](O)[C@]5(C)[C@@H](C7=CC(=O)OC7)CC[C@]65O)C4)O[C@@H]3C)O[C@@H]2C)C[C@H](O)[C@@H]1O [DIGOXIN]
activity [1]: 99%

COc1ccc([C@@H]2Sc3ccccc3N(CCN(C)C)C(=O)[C@@H]2OC(C)=O)cc1 [DILTIAZEM]
activity [1]: 40%

OCCN(CCO)c1nc(N2CCCCC2)c2nc(N(CCO)CCO)nc(N3CCCCC3)c2n1 [DIPYRIDAMOLE]
activity [1]: 42%

COc1cccc2c1C(=O)c1c(O)c3c(c(O)c1C2=O)C[C@@](O)(C(=O)CO)C[C@@H]3O[C@H]1C[C@H](N)[C@H](O)[C@H](C)O1 [DOXORUBICIN]
activity (sf9): 87%

CC(C)[C@@]1(NC(=O)[C@@H]2C=C3c4cccc5[nH]cc(c45)C[C@H]3N(C)C2)O[C@@]2(O)[C@@H]3CCCN3C(=O)[C@H](Cc3ccccc3)N2C1=O [ERGOCRISTINE]
activity [1]: 60%

C#Cc1cccc(Nc2ncnc3cc(OCCOC)c(OCCOC)cc23)c1 [ERLOTINIB]
activity [1]: 47%

CC[C@H]1OC(=O)[C@H](C)[C@@H](O[C@H]2C[C@@](C)(OC)[C@@H](O)[C@H](C)O2)[C@H](C)[C@@H](O[C@@H]2O[C@H](C)C[C@H](N(C)C)[C@H]2O)[C@](C)(O)C[C@@H](C)C(=O)[C@H](C)[C@@H](O)[C@]1(C)O [ERYTHROMYCIN]
activity [1]: 89%

C[C@]12CC[C@@H]3c4ccc(O)cc4CC[C@H]3[C@@H]1CC[C@@H]2O [ESTRADIOL]
activity [1]: 123%

C[C@]12CC[C@@H]3c4ccc(OS(=O)(=O)O)cc4CC[C@H]3[C@@H]1CCC2=O [ESTRONE SULFURIC ACID]
activity [1]: 300%

COc1cc([C@@H]2c3cc4c(cc3[C@@H](O[C@@H]3O[C@@H]5CO[C@@H](C)O[C@H]5[C@H](O)[C@H]3O)[C@H]3COC(=O)[C@H]23)OCO4)cc(OC)c1O [ETOPOSIDE]
activity [1]: 110%

CC1=C(CC(=O)O)c2cc(F)ccc2/C1=C\c1ccc(S(C)(=O)=O)cc1 [EXISULIND]
activity [1]: 113%

CCOC(=O)C1=C(C)NC(C)=C(C(=O)OC)C1c1cccc(Cl)c1Cl (stereo not given) [FELODIPINE]
activity [1]: 86%

CC(NCCC(c1ccccc1)c1ccccc1)c1ccccc1 (stereo not given) [FENDILINE]
activity [1]: 5%

CC(C)OC(=O)C(C)(C)Oc1ccc(C(=O)c2ccc(Cl)cc2)cc1 [FENOFIBRATE]
activity [1]: 46%

CC(C)(C(=O)O)c1ccc(C(O)CCCN2CCC(C(O)(c3ccccc3)c3ccccc3)CC2)cc1 (stereo not given) [FEXOFENADINE]
activity [1]: 97%

Cc1onc(-c2c(F)cccc2Cl)c1C(=O)N[C@@H]1C(=O)N2[C@@H]1SC(C)(C)[C@@H]2C(=O)O [FLOXACILLIN]
activity [1]: 73%

O=C1OC2(c3ccc(O)cc3Oc3cc(O)ccc32)c2ccccc21 [FLUORESCEIN]
activity [1]: 82%

CC(C(=O)O)c1ccc(-c2ccccc2)c(F)c1 (stereo not given) [FLURBIPROFEN]
activity [1]: 108%

CC(C)C(=O)Nc1ccc([N+](=O)[O-])c(C(F)(F)F)c1 [FLUTAMIDE]
activity [1]: 126%

NS(=O)(=O)c1cc(C(=O)O)c(NCc2ccco2)cc1Cl [FUROSEMIDE]
activity [1]: 118%

CC(=O)O[C@H]1C[C@@]2(C)[C@@H](C[C@@H](O)[C@H]3[C@@]4(C)CC[C@@H](O)[C@@H](C)[C@@H]4CC[C@@]32C)/C1=C(\CCC=C(C)C)C(=O)O [FUSIDIC ACID]
activity [1]: 72%

COc1cc2ncnc(Nc3ccc(F)c(Cl)c3)c2cc1OCCCN1CCOCC1 [GEFITINIB]
activity (sf9): 74%

O=c1c(-c2ccc(O)cc2)coc2cc(O)cc(O)c12 [GENISTEIN]
activity [1]: 101%

Cc1ccc(S(=O)(=O)NC(=O)NN2CC3CCCC3C2)cc1 (stereo not given) [GLICLAZIDE]
activity [1]: 174%
